Results on 100 molecules are retold here after PubChem BioAssay AID488890 (Southern Research Specialized Biocontainment Screening …, 2010).

As usually defined, the IC50 is the midpoint of a concentration-inhibition curve.

The test system of this assay is Mycobacterium tuberculosis non-replicating, growth inhibition. Briefly: growth inhibition of non-replicating M. tuberculosis (AID 488890).

Results filed as inconclusive are left out. Activity calls are given as the source filed them. No rule for the calls is given here. A value given as a limit tells only on which side of the number the result lay.

In the case of `OC(CNCC(c1ccc(Cl)cc1Cl)c1c[nH]c2ccccc12)c1ccccc1` (stereo not given), the IC50 was 10.9 µM (inactive).
Take `CCCCC1CCC(C(=O)Nc2ccc(S(=O)(=O)Nc3nccs3)cc2)CC1` (stereo not given): the IC50 was 7.7 µM.
Turning to `O=C(OCc1cccc(F)c1)c1ccc2c(=O)n3c(nc2c1)CCC3`, the IC50 was 8.62 µM.
For the molecule `CCCOc1ccc(C(=O)C(CN2CCCC2)c2ccccc2)cc1` (stereo not given), the IC50 is 3.82 µM.
With `CSc1nc2ccc(NC(=O)C3CC(=O)N(Cc4ccccc4)C3)cc2s1` (stereo not given), the IC50 was 13.6 µM (inactive).
With `O=S1(=O)N=C(N/N=C/C=C/c2ccccc2)c2ccccc21` the figure was 8.69 µM; with `NC(=O)CN1CCN(C2CC(=O)N(CCc3ccccc3)C2=O)CC1` (stereo not given), 19.9 µM (inactive); with `CC(C)(C)NCC1(CO)SC(N)=NC1=O` (stereo not given), 15.5 µM (inactive).
In the case of `COc1ccc(C(=O)Nc2nnc(-c3ccccc3)o2)cc1OC`, the IC50 was 10.4 µM (inactive).
As to `O=C(N/N=C/c1ccc[nH]1)c1ccncc1`, the IC50 is 2.22 µM.
For `CCc1ccc(/C=N/NC(=O)c2ccccn2)cc1`, the IC50 was 24.8 µM (inactive).
Turning to `CC(C)c1cc(C(=O)N/N=C/C=C/c2ccccc2)n[nH]1`, the IC50 was 27 µM (inactive).
Regarding `COc1ccccc1NC(=O)c1ccc([N+](=O)[O-])o1`, the IC50 was 1.12 µM.
In the case of `O=C(OCCCOC(=O)c1ccc([N+](=O)[O-])o1)c1ccc([N+](=O)[O-])o1`, the IC50 was 1.22 µM.
In the case of `CC(C)[C@@H]1CC[C@@H](C)C[C@H]1OC(=O)C[n+]1cc(-c2ccc(Cl)cc2)n2c1CCCCC2`, the IC50 was 2.18 µM.
For the molecule `CCCCCn1c(=O)c(C(=O)Nc2nc3ccccc3[nH]2)c(O)c2ccccc21`, the half-inhibitory concentration (IC50) was 1.9 µM.
As for `O=C(CCS(=O)(=O)Cc1ccccc1)Nc1ncc([N+](=O)[O-])s1`, the IC50 was 1.97 µM.
Regarding `CC(NCC(O)COCCC12CC3CC(CC(C3)C1)C2)c1ccccc1` (stereo not given), the IC50 was 7.88 µM.
Take `CN1C(=O)CC(N2CCC(c3nc4ccccc4s3)CC2)C1=O` (stereo not given): the IC50 was 32.6 µM (inactive).
For `CN1CCN(c2cc3c(cc2F)c(=O)c(C(=O)O)cn3CCF)CC1`, the IC50 is 7.52 µM.
The figure for `O=C(NCCC1=CCCCC1)c1ccc(Br)o1` is 2.31 µM.
The figure for `COc1ccc(C(=O)Nc2ccccc2C(=O)N/N=C/c2ccccn2)cc1OC` is 24.7 µM (inactive).
The figure for `O=[N+]([O-])c1cc([N+](=O)[O-])c2cc3ccccc3nc2c1` is less than 0.1 µM; for `CN1CC(=O)NC1=NC(=O)C12CC3CC(CC(C3)C1)C2` it is 4.08 µM; for `O=C(CCC1CCCC1)NCc1ccccn1` it is 3.4 µM.
On to `CCOc1ccc(C(=O)CCN2CCCCCC2)cc1`, for which the IC50 was 2.44 µM.
With `N#Cc1ccc(-c2ccc(OCC(=O)Nc3cccnc3)cc2)cc1`, the IC50 was 1.43 µM.
Regarding `CCOC(=O)CN(C#N)c1nc(N(C)C)nc(N(C)C)n1`, the IC50 was 8.42 µM.
The figure for `CCN(CC)C(=O)c1sc2nc(-c3ccccc3)ccc2c1N` is 14.7 µM (inactive).
Consider `Cc1cc(C)n2nc(N)c(N=Nc3ccccc3)c2n1`, for which the IC50 is 5.87 µM.
With `C/C(=N\NC(=O)C(C)Oc1ccc([N+](=O)[O-])cc1)c1ccccn1` (stereo not given) the figure was 9.84 µM; with `COc1ccc(-n2c3c(cc(C(=O)NNc4ccccc4)c2=O)C(=O)CC(C)(C)C3)cc1`, 17.8 µM (inactive); with `Cc1cc(C)cc(OC(=O)CCN2C(=O)c3ccccc3C2=O)c1`, 19.4 µM (inactive).
As for `O=C(CCNc1cccc(Cl)c1)c1cccs1`, the IC50 is 11 µM (inactive).
Consider `CC(C)Cn1c(=O)c(C(=O)Nc2ccncc2)c(O)c2ccccc21`, for which the IC50 is 2.86 µM.
As to `CCOC(=O)C1=C(c2ccccc2)NC(N)=NC1c1ccc(OCc2ccc(Cl)cc2)c(OC)c1` (stereo not given), the IC50 is 4.25 µM.
With `COC(=O)c1ccc(CO/N=C/c2ccc(OC)cc2)o1` the figure was 6.95 µM; with `Cc1cccc(-c2cc3nc(C)c(C)c(NCCCn4ccnc4)n3n2)c1`, 10.9 µM (inactive).
For the molecule `COc1ccc([N+](=O)[O-])c(S(=O)(=O)c2ccc(Cl)cc2)n1`, the IC50 was 1 µM.
In the case of `O=C(N/N=C/c1cccc2nccnc12)c1ccncc1`, the IC50 was 1.13 µM.
The figure for `O=C(CCc1ccc(Oc2cc([N+](=O)[O-])cc([N+](=O)[O-])c2)cc1)N1CCCCC1` is 4.85 µM.
As for `N=c1oc2ccccc2cc1C(=O)NC1CCCCCC1`, the IC50 was 7.31 µM.
Consider `CC(C)(C)C(=O)/C=C/Nc1ccccc1O`, for which the IC50 was 4.66 µM.
The figure for `CCOC(=O)CNC(=O)CNC(=O)c1nn(-c2ccc(OC)c(Cl)c2)c(=O)c2ccccc12` is 29.1 µM (inactive); for `Cc1ccc2c(c1)C(=O)C(=O)N2CCCOc1ccccc1` it is 22.9 µM (inactive).
Take `O=C(O)c1ccccc1C(=O)NNc1ccc(F)cc1`: the IC50 was 12.4 µM (inactive).
For `CC(C)c1ccc(N2C(=O)NC(=O)/C(=C/C=C/c3ccco3)C2=O)cc1`, the IC50 is 8.65 µM.
On to `Cn1cnc([N+](=O)[O-])c1Sc1ccc([N+](=O)[O-])cc1`, for which the IC50 was 19.7 µM (inactive).
Regarding `c1ccc(-c2nc(NCCCn3ccnc3)c3ccccc3n2)cc1`, the IC50 is 17.8 µM (inactive).
In the case of `Nc1nonc1C(=O)N/N=C/c1ccc([N+](=O)[O-])o1`, the IC50 is 5.6 µM.
On to `Cc1c(CN2CCC(CO)(CCOc3ccccc3)CC2)[nH]c2c(Cl)cccc12`, for which the IC50 was 8.93 µM.
On to `CC(C)CCNCC(O)CON=C1c2ccccc2-c2ccccc21` (stereo not given), for which the IC50 is 9.29 µM.
In the case of `CCc1ccc(NC(=O)CCc2ccc(C)o2)cc1`, the IC50 was 9.6 µM.
The figure for `O=c1[nH]c(-c2ccccn2)nc2ccccc12` is 9.66 µM; for `O=C(CCNc1cccc(Cl)c1)c1ccco1` it is 5.4 µM; for `Nc1nc2ccccc2n1CCOc1ccc(Br)cc1` it is 21.5 µM (inactive).
Turning to `O=C(CCNc1cccc(F)c1)c1cccc([N+](=O)[O-])c1`, the IC50 is 5.37 µM.
Take `CCCc1cc(NCc2ccccn2)n2nc(C)c(-c3ccccc3)c2n1`: the IC50 is 2.23 µM.
As to `CCCOc1ccc(CCC(=O)N/N=C/c2ccc([N+](=O)[O-])o2)cc1`, the IC50 is 4.22 µM.
The figure for `O=C(Nc1cccc(NC(=O)c2cccs2)c1)c1ccc([N+](=O)[O-])o1` is 5.43 µM; for `CN(C)CCN1C(=O)c2oc3ccccc3c(=O)c2C1c1cccc(Br)c1` (stereo not given) it is 23.1 µM (inactive); for `Cc1cc(O)c(-c2cc(O)c(C)cc2O)cc1O` it is 2.52 µM.
The figure for `CCCc1cc(C(=O)Nc2ccccc2SC)no1` is 12.1 µM (inactive); for `Nc1ccccc1C#CC(=O)c1ccccc1` it is less than 0.1 µM.
In the case of `Cc1ccc(NC(=O)CO/N=C/c2ccc(N(C)C)cc2)cc1`, the IC50 was 7.84 µM.
The figure for `O=c1oc(-c2ccccc2[N+](=O)[O-])nc2ccccc12` is 18.9 µM (inactive).
Regarding `FC(F)(F)c1ccc(-c2nnc(-c3cccnc3)o2)cc1`, the IC50 was 6.48 µM.
In the case of `O=C(NC(=S)N1CCc2ccccc21)c1ccccc1`, the IC50 was 11.6 µM (inactive).
`COc1ccc(NC(=O)c2cc([N+](=O)[O-])ccc2O)cc1`: the IC50 was 7.71 µM.
In the case of `CCC(C)[C@H]1CN=C(N)N1CCc1cccc2ccccc12` (stereo not given in full), the IC50 was 12.5 µM (inactive).
On to `CC1CCN(CCc2nc3cc(NC(=O)COc4ccc(Cl)cc4)ccc3n2C)CC1`, for which the IC50 was 17.4 µM (inactive).
The figure for `CC(=O)c1ccc(NC(=O)CCc2ccc(C)o2)cc1` is 25.8 µM (inactive); for `COC(=O)c1cccc(NC(=O)COc2cccc([N+](=O)[O-])c2)c1` it is 7.11 µM.
As for `CCOC(=O)N1CCN(Cc2cc(Cl)c3cccnc3c2O)CC1`, the IC50 is 3.55 µM.
The figure for `Oc1ccccc1/C=N/Nc1ncc(Br)cn1` is 1.12 µM; for `COc1ccc(/C=N/Nc2cc(C)nc(-n3nc(C)cc3C)n2)c(OC)c1` it is 3.3 µM; for `O=C(COc1ccccc1)NC1CCCCC1` it is 0.61 µM.
With `O=C(CCCSc1nc2ccccc2s1)NCc1ccco1`, the IC50 was 10.7 µM (inactive).
The figure for `COc1cc(OC)c2c(OC)cccc2n1` is 6.63 µM.
Take `Cc1ccccc1-n1c(C)cc(/C=N/NC(=O)c2ccncc2)c1C`: the IC50 is 0.65 µM.
Take `C/C(=N\Nc1nc2ccccc2[nH]1)c1cc2ccccc2o1`: the IC50 was 8.88 µM.
For the molecule `CCOC(=O)C1CCN(CCCSc2ccc(Cl)cc2)CC1`, the IC50 was 46.4 µM (inactive).
The figure for `O=C(CCSc1nnc(-c2ccncc2)o1)Nc1ccc(Cl)cc1` is 14.7 µM (inactive); for `Clc1ccc(Cl)c(OCCCCNCc2ccccc2)c1` it is 15.1 µM (inactive); for `Cc1noc2ncnc(Sc3ccc(Cl)cc3)c12` it is 10.9 µM (inactive).
Consider `Cc1cc(C(=O)N/N=C/c2ccc([N+](=O)[O-])o2)c(C)o1`, for which the IC50 was 5.51 µM.
For `O=C(Nc1ccccc1N1CCCC1)c1cccc(F)c1`, the IC50 was 24.4 µM (inactive).
Turning to `CCOC(=O)COn1c(-c2cccc(Cl)c2)nc2ccc([N+](=O)[O-])cc21`, the IC50 was 19.6 µM (inactive).
The figure for `O=[N+]([O-])c1ccc(CN2CCN(c3ccccc3Cl)CC2)o1` is 3.83 µM; for `CCn1c(/C=N/NC(=O)c2ccc(OC)cc2)nc2ccccc21` it is 7.78 µM.
As for `O=C(NCCc1ccccc1)c1nc(-c2cccs2)no1`, the IC50 was 2.21 µM.
For the molecule `CC(C)(C)NCc1cc(Br)ccc1OC1CCCC1`, the IC50 was 8.01 µM.
With `CC(C)(C)c1ccc(Cn2c(=N)n(CC(O)c3ccco3)c3ccccc32)cc1` (stereo not given), the IC50 is 7.36 µM.
With `CC(=O)c1c(C)n(C)c2ccc(OC(=O)c3ccco3)cc12` the figure was 10.3 µM (inactive); with `C#CCSc1nnc(-c2cccc3ccccc23)o1`, 3.46 µM.
With `Cc1nc([N+](=O)[O-])c(Br)n1CC(=O)c1ccc(Cl)cc1`, the IC50 is 5.69 µM.
For the molecule `COC(=O)C(C)Oc1ccc2cc(-c3ccccc3)c(=O)oc2c1` (stereo not given), the IC50 was 4.96 µM.
With `CNC(=S)N1CCN(c2c(F)cc3c(=O)c(C(=O)O)cn(C4CC4)c3c2OC)CC1C` (stereo not given) the figure was 0.42 µM; with `O=C(OCC(=O)C12CC3CC(CC(C3)C1)C2)c1ccccn1`, 9.38 µM; with `O=C(Nc1cccc([N+](=O)[O-])c1)C1COc2ccccc2O1` (stereo not given), 21 µM (inactive).
